Source: publication PMC5829251, “NAD^+ analog reveals PARP-1 substrate-blocking mechanism and allosteric communication from catalytic center to DNA-binding domains” (Nature Communications, 2018)

Tested on: PARP-1 ΔHD
Assay: Fluorescence polarization DNA competition assay, PARP-1 ΔHD
Assay type: binding, human
Conditions: 40 nM PARP-1 ΔHD, 20 nM labeled DNA, BAD 500 μM
Experimental: For the DNA competition assay, 40 nM PARP-1 WT, or PARP-1 ΔHD, was incubated with 20 nM of dumbbell DNA with a central nick carrying an internal fluorescent FAM group (5′-GCT GAG C/FAMT/T CTGGTGAAGCTCAGCTCGCGGCAGCTGGTGCTGCCGCGA-3′) for 30 min at RT in 12 mM Hepes pH 8.0, 60 mM KCl, 8 mM MgCl2, 4% glycerol, 5.7 mM beta-mercaptoethanol, 0.05 mg per ml bovine serm albumin with or without BAD or benzamide (500 μM). A competitor unlabeled DNA of the same sequence was added at 100 nM and FP was measured over time on a VictorV plate reader (Perkin Elmer). For the DNA affinity measurement assay, increasing concentrations of PARP-1 WT were incubated for 30 min at RT with 5 nM of dumbbell DNA probe carrying a nick (described above) in the absence or presence of BAD or benzamide (100 μM) in the following buffer: 12 mM Hepes pH 8.0, 250 mM NaCl, 4% glycerol, 5.7 mM beta-mercaptoethanol, 0.05 mg per ml bovine serum albumin.

NC(=O)c1cccc(C2OC(COP(=O)(O)OP(=O)(O)OCC3OC(n4cnc5c(N)ncnc54)C(O)C3O)C(O)C2O)c1 (stereo not shown) [BAD, benzamide adenine dinucleotide]
release of full-length PARP-1 ΔHD from the labeled DNA: did not prevent the rapid release
